Results taken from patent US7504407B2, “Compounds specific to adenosine A1 and A3 receptors and uses thereof” (OSI Pharmaceuticals, Inc., priority 2001, dated 2009).

Tests used:
[1] = biological target: T1, human A1 receptor subtype (Homo sapiens, UniProt P30542)
T1 sequence (P30542 1-326): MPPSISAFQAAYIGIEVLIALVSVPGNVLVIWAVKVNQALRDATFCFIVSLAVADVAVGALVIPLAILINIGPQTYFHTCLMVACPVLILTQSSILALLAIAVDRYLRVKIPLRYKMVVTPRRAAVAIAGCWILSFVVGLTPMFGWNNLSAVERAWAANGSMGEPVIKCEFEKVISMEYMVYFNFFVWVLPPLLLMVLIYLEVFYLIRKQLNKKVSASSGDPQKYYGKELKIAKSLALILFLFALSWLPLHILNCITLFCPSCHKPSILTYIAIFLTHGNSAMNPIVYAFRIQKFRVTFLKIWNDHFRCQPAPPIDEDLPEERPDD

[2] = biological target: T2, human A3 receptor subtype (Homo sapiens, UniProt P0DMS8); experiment: Adenosine 3 receptor competition radioligand binding, [125I]AB-MECA, HEK293 membranes; details: for properties relative to compound 1720: A3 affinity, A3/A1 selectivity, solubility as in Table 3
T2 construct: expressed in transfected cells; host or cells: HEK293
T2 sequence (P0DMS8 1-318): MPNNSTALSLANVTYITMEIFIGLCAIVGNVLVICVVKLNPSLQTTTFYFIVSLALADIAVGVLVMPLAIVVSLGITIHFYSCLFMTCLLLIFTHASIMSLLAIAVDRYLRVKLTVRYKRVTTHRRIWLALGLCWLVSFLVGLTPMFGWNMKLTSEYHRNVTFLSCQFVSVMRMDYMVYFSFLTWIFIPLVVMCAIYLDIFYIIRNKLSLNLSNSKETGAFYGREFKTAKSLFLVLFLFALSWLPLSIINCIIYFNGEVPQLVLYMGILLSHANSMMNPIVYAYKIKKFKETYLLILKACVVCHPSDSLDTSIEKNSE

[3] = biological target: T3, human A1 adenosine receptor (Homo sapiens, UniProt P30542); details: cited from earlier work
T3 sequence (P30542 1-326): T1 sequence (P30542 1-326)

[4] = biological target: T4, human A2a receptor subtype (Homo sapiens, UniProt P29274); experiment: Adenosine 2a receptor subtype competition radioligand binding, [3H]CGS-21680, HEK293 membranes; details: @ 10 μM
T4 construct: expressed in transfected cells; host or cells: HEK-293 (Cadus clone #5)
T4 sequence (P29274 whole entry): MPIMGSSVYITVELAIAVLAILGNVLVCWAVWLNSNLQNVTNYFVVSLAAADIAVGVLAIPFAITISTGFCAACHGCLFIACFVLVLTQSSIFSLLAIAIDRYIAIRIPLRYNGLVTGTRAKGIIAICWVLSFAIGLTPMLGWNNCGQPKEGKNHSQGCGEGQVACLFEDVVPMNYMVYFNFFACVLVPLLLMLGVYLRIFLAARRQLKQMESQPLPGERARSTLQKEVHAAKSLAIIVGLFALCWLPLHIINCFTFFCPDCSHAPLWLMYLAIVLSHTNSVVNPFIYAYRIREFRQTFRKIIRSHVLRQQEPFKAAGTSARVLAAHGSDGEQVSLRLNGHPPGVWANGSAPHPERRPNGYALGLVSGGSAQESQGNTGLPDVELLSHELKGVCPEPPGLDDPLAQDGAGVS

For `NC(=O)[C@@H]1C[C@@H](O)CN1c1nc(-c2ccccc2)nc2[nH]ccc12` [Compound 1631, (2S, 4R)-4-Hydroxy-1-(2-phenyl-7H-pyrrolo[2,3-d]pyrimidin-4-yl)-pyrrolidine-2-carboxylic acid amide methane sulfonate], which “A1 receptor binding affinity relative to reference compounds 1318 or 1319” value [1] is on record?
The value was “equaled or surpassed”.

For `Cc1cc2c(NCCc3c[nH]cn3)nc(-c3cccc(Cl)c3)nc2[nH]1` [Compound 1731], which “properties relative to compound 1720” value [2] is on record?
Its value is “superior”.

What about the “Binding Affinity for A3 receptor relative to compound 1720” value [2] of the same compound?
Its value is “Similar”.

Which melting point does the source give for `Clc1cccc(-c2nc(NCCCn3ccnc3)c3cc[nH]c3n2)c1` [Compound 1723] here?
The melting point was 183 to 185 °C.

What does the source list for `c1ccc(-c2nc(N3CCc4nc[nH]c4C3)c3cc[nH]c3n2)cc1` [Compound 1733]?
properties relative to compound 1720 [2]: superior; Binding Affinity for A3 receptor relative to compound 1720 [2]: Similar

For `c1ccc(-c2nc(NCCc3cnc[nH]3)c3cc[nH]c3n2)cc1` [Compound 1720, [2-(3H-Imidazol-4-yl)-ethyl]-(2-phenyl-7H-pyrrolo[2,3-d]pyrimidin-4-yl)-amine], which “A3 receptor binding affinity relative to reference compound 1308” value ([2]; relative to reference compound 1308) is on record?
The value was “greater than 10 times”.

And the melting point?
The melting point was 234 to 235 °C.

With `CC(Cc1ccccc1)Nc1ncnc2c1ncn2C1OC(CO)C(O)C1O` (single isomer, unassigned; (-)) [R-PIA, (−)-N6-(2-phenylisopropyl)-adenosine] as the compound, how does the reported affinity [3] read?
The reported affinity was “approximately 50 nM”.

With `CNC(=O)NCCCNc1nc(-c2ccccc2)nc2[nH]c(C)c(C)c12` [Compound 1310] as the compound, how does the “% activity A2a” value [4] read?
The value was 76%.

With `Clc1cccc(-c2nc(NCCc3ccccn3)c3cc[nH]c3n2)c1` [Compound 1722] as the compound, how does the melting point read?
The melting point was 199 to 200 °C.

For `Clc1cccc(-c2nc(NCCc3cnc[nH]3)c3cc[nH]c3n2)c1` [Compound 1721], which “properties relative to compound 1720” value [2] is on record?
The value was “superior”.

And the “Binding Affinity for A3 receptor relative to compound 1720” value [2]?
The value was “Higher”.
